# Results from the NIST ThermoML archive (doi:10.1021/je3002255).
# Numbers after ± are expanded uncertainties.
# Settings: Liquid, Ebulliometric method (Recirculating still)
smiles,measurement,setting,value
CCCOCCO [2-propoxyethanol],vapor or sublimation pressure,406.13 K,60 ± 1.4 kPa
same,vapor or sublimation pressure,406.15 K,60 ± 1.4 kPa
same,vapor or sublimation pressure,415.28 K,80 ± 2 kPa
same,vapor or sublimation pressure,415.3 K,80 ± 2 kPa
same,vapor or sublimation pressure,422.73 K,100 ± 2.5 kPa
same,vapor or sublimation pressure,422.75 K,100 ± 2.5 kPa
CC(C)O [propan-2-ol],vapor or sublimation pressure,342.87 K,60 ± 1.4 kPa
same,vapor or sublimation pressure,349.6 K,80 ± 1.8 kPa
same,vapor or sublimation pressure,355.06 K,100 ± 2.4 kPa
CCC(C)O (configuration not stated) [butan-2-ol],vapor or sublimation pressure,359.26 K,60 ± 1.4 kPa
same,vapor or sublimation pressure,366.45 K,80 ± 1.8 kPa
same,vapor or sublimation pressure,372.21 K,100 ± 2.4 kPa
